Data reported in US20240116877A1, “KIT KINASE INHIBITORS AND METHODS OF USE THEREOF” (Deciphera Pharmaceuticals, LLC, priority 2021, published 2024).
Where two headings read alike, the source gives them in different places.

Tests used:
GIST 430 cells = assay: GIST 430 Cell Proliferation Assay (resazurin); type: cell-based; settings: Homo sapiens; GIST430 cell proliferation
In short: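 Five thousand cells per well were exposed to serially diluted compound in complete growth medium for 115 h at 37 degrees Celsius, 5% CO2. Resazurin was then added for a further 5 h, fluorescence read at 540 nm excitation/600 nm emission, and IC50 values calculated.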

c-KIT kinase (uKIT) = c-KIT kinase (uKIT) (Homo sapiens (Human), UniProt P10721); assay: Biochemical Assay for uKIT (coupled pyruvate kinase/lactate dehydrogenase assay); settings: Inhibition of biochemical activity of uKIT kinase; 1 mM ATP
Chain of c-KIT kinase (uKIT) (P10721 other isoform, or with tags, fused parts or gaps): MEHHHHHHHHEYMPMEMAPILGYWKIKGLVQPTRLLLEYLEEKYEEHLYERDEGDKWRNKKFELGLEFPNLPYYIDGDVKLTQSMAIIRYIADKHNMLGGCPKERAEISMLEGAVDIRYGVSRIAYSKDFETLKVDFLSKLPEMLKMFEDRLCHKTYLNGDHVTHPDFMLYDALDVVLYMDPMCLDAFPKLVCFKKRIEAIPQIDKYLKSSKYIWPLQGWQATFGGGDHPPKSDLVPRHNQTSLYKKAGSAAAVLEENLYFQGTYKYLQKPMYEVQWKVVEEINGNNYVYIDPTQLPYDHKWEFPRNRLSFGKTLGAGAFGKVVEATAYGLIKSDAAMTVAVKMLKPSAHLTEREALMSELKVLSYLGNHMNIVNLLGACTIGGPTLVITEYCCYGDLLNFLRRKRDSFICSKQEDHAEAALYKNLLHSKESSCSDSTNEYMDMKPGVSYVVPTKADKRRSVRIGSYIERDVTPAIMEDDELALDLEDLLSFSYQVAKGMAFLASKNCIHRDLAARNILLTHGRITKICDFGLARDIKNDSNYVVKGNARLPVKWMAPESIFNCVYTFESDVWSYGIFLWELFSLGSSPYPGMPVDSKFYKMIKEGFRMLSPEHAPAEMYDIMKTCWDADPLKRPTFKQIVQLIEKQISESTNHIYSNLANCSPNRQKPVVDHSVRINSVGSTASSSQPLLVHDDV
In short: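 IC50 from percent inhibition of reaction rate over 2-3 h, relative to no-compound and known-inhibitor controls. KIT enzyme (16 nM or 4.36 nM, two sequences) ran with 1 mM ATP and 0.7 mg/mL PE4Y in Tris pH 7.5, 30° C; ATP turnover coupled to NADH loss at 340 nm.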

Ba/F3 KIT mutant cells = assay: Ba/F3 mutant KIT Cell Proliferation Assays (resazurin); type: cell-based; settings: Mus musculus, BaF3
In short: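 IC50 values come from resazurin fluorescence (ex 540, em 600) after 5 h dye exposure, added as a 440 μM solution. Cells were IL-3-independent Ba/F3 expressing mutant KIT from a lentiviral vector, puromycin-selected.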

[1] = Ba/F3 KIT AYdup-V654A mutant cell proliferation, read-out: AYdup-V654A IC50
[2] = Ba/F3 KIT exon11del-V654A mutant cell proliferation, read-out: exon11del-V654A IC50
[3] = Ba/F3 KIT exon11del-Y823D mutant cell proliferation, read-out: exon11del-Y823D IC50
[4] = Ba/F3 KIT AYdup mutant cell proliferation, read-out: AYdup IC50
[5] = Ba/F3 KIT AYdup-D816G mutant cell proliferation, read-out: AYdup-D816G IC50

| SMILES | IC50 (GIST 430 cells) [nM] | IC50 (c-KIT kinase (uKIT)) [nM] | IC50 (Ba/F3 KIT mutant cells; [1]) [nM] | IC50 (Ba/F3 KIT mutant cells; [2]) [nM] | IC50 (Ba/F3 KIT mutant cells; [3]) [nM] | IC50 (Ba/F3 KIT mutant cells; [4]) [nM] | IC50 (Ba/F3 KIT mutant cells; [5]) [nM] |
| --- | --- | --- | --- | --- | --- | --- | --- |
| COCCOc1cc(F)c2c(Nc3ccc(NC(=O)CC(=O)N[C@H]4C[C@@H](OC)C4)cc3)ncnc2c1 [Example 116] | 100 to 1000 | 100 to 1000 | 100 to 1000 | 10 to 100 | – | – | – |
| COCCOc1cc(F)c2c(Nc3ccc(NC(=O)CC(=O)N[C@H]4C[C@H](OC)C4)cc3)ncnc2c1 [Example 117] | 10 to 100 | 100 to 1000 | 10 to 100 | 10 to 100 | > 1000 | – | – |
| COCCOc1cc(F)c2c(Nc3ccc(NC(=O)CC(=O)NCC4CC5(CCC5)C4)cc3)ncnc2c1 [Example 118] | 10 to 100 | ≤ 10 | 10 to 100 | ≤ 10 | 10 to 100 | – | – |
| COCCOc1cc(F)c2c(Nc3ccc(NC(=O)CC(=O)NCCC(C)(C)F)cc3)ncnc2c1 [Example 119] | 10 to 100 | 10 to 100 | 10 to 100 | 10 to 100 | 100 to 1000 | – | – |
| COCCCOc1cc(F)c2c(Nc3ccc(NC(=O)NCCC(C)(C)F)cc3)ncnc2c1 [Example 120] | 10 to 100 | ≤ 10 | 10 to 100 | ≤ 10 | 100 to 1000 | – | – |
| COCCOc1cc(F)c2c(Nc3ccc(NC(=O)CC(=O)NC[C@@H]4CCCO4)cc3)ncnc2c1 [Example 121] | 100 to 1000 | 100 to 1000 | 100 to 1000 | 10 to 100 | > 1000 | – | – |
| COCCOc1cc(F)c2c(Nc3ccc(NC(=O)N4CCC(C(C)(C)C)C4)cc3)ncnc2c1 (centres unmarked) [Example 122] | 100 to 1000 | 10 to 100 | 100 to 1000 | 10 to 100 | > 1000 | – | – |
| CC(C)(F)CCNC(=O)Nc1ccc(Nc2ncnc3cc(OCC4CCOCC4)cc(F)c23)cc1 [Example 123] | 10 to 100 | ≤ 10 | 10 to 100 | ≤ 10 | 10 to 100 | – | – |
| COCCOc1cc(F)c2c(Nc3ccc(NC(=O)CC(=O)NC(C)(C)C)cc3)ncnc2c1 [Example 124] | 10 to 100 | 10 to 100 | 10 to 100 | 10 to 100 | 100 to 1000 | – | – |
| COCCOc1cc(F)c2c(Nc3ccc(NC(=O)C(=O)NCCC(C)(C)C)cc3)ncnc2c1 [Example 125] | 10 to 100 | 10 to 100 | 10 to 100 | 10 to 100 | – | – | – |
| COCCOc1cc(F)c2c(Nc3ccc(NC(=O)C(=O)NCC(C)(C)C)cc3)ncnc2c1 [Example 126] | 100 to 1000 | 100 to 1000 | 100 to 1000 | 100 to 1000 | > 1000 | – | – |
| COCCOc1cc(F)c2c(Nc3ccc(NC(=O)CC(=O)NCC(F)(F)F)cc3)ncnc2c1 [Example 127] | 10 to 100 | 10 to 100 | 10 to 100 | 10 to 100 | > 1000 | – | – |
| COCCOc1cc(F)c2c(Nc3ccc(NC(=O)CC(=O)NC4(C(C)C)CC4)cc3)ncnc2c1 [Example 128] | 10 to 100 | 10 to 100 | 10 to 100 | ≤ 10 | 100 to 1000 | – | – |
| COCCOc1cc(F)c2c(Nc3ccc(NC(=O)CC(=O)NC4(C(F)(F)F)CC4)cc3)ncnc2c1 [Example 129] | 10 to 100 | 10 to 100 | 10 to 100 | ≤ 10 | > 1000 | – | – |
| COCCOc1cc(F)c2c(Nc3ccc(NC(=O)CC(=O)NC(C)(C)C(F)(F)F)cc3)ncnc2c1 [Example 130] | 10 to 100 | 10 to 100 | 10 to 100 | ≤ 10 | 10 to 100 | ≤ 10 | 10 to 100 |
| COCCOc1cc(F)c2c(Nc3ccc(NC(=O)CC(=O)NC(C)(C)C4CC4)cc3)ncnc2c1 [Example 131] | 10 to 100 | 10 to 100 | 10 to 100 | ≤ 10 | 10 to 100 | ≤ 10 | 10 to 100 |
| COCCOc1cc(F)c2c(Nc3ccc(NC(=O)CC(=O)NCC4(C)COC4)cc3)ncnc2c1 [Example 132] | 100 to 1000 | 10 to 100 | 100 to 1000 | 10 to 100 | – | – | – |
| COCCOc1cc(F)c2c(Nc3ccc(NC(=O)NCC=C(C)C)cc3)ncnc2c1 [Example 133] | 10 to 100 | ≤ 10 | ≤ 10 | ≤ 10 | 10 to 100 | – | – |
| COCCOc1cc(F)c2c(Nc3ccc(NC(=O)CC(=O)NC4CC5(CCC5)C4)cc3)ncnc2c1 [Example 135] | ≤ 10 | ≤ 10 | ≤ 10 | ≤ 10 | 10 to 100 | – | – |
| COCCOc1cc(F)c2c(Nc3ccc(NC(=O)CC(=O)NCC4CC(C)(C)C4)cc3)ncnc2c1 [Example 136] | 10 to 100 | 10 to 100 | 10 to 100 | ≤ 10 | 100 to 1000 | – | – |
| COCCOc1cc(F)c2c(Nc3ccc(NC(=O)NC(=O)CC4(C(F)(F)F)COC4)cc3)ncnc2c1 [Example 137] | 10 to 100 | 10 to 100 | 10 to 100 | 10 to 100 | > 1000 | – | – |
| CC(C)(F)CCNC(=O)Nc1ccc(Nc2ncnc3cc(OC4CCOCC4)cc(F)c23)cc1 [Example 138] | 10 to 100 | ≤ 10 | 10 to 100 | ≤ 10 | 100 to 1000 | ≤ 10 | 10 to 100 |
| COCCOc1cc(F)c2c(Nc3ccc(NC(=O)CC(=O)N4CC(C)(C)C4)cc3)ncnc2c1 [Example 139] | 10 to 100 | 10 to 100 | 10 to 100 | ≤ 10 | > 1000 | ≤ 10 | 10 to 100 |
| COCCOc1cc(F)c2c(Nc3ccc(NC(=O)CC(=O)N4CCCC4(C)C)cc3)ncnc2c1 [Example 140] | 10 to 100 | 10 to 100 | 10 to 100 | 10 to 100 | 100 to 1000 | – | – |
| COCCOc1cc(F)c2c(Nc3ccc(NC(=O)CC(=O)N4CCC(C)(C)C4)cc3)ncnc2c1 [Example 141] | 10 to 100 | 10 to 100 | 10 to 100 | ≤ 10 | 10 to 100 | ≤ 10 | 10 to 100 |
| COCCOc1cc(F)c2c(Nc3ccc(NC(=O)CC(=O)N4CCCCC4(C)C)cc3)ncnc2c1 [Example 142] | 10 to 100 | 10 to 100 | 10 to 100 | 10 to 100 | 10 to 100 | – | – |
| COCCOc1cc(F)c2c(Nc3ccc(NC(=O)CC(=O)N(C)C(C)(C)C)cc3)ncnc2c1 [Example 143] | ≤ 10 | 10 to 100 | 10 to 100 | ≤ 10 | 10 to 100 | ≤ 10 | 10 to 100 |
| COCCOc1cc(F)c2c(Nc3ccc(NC(=O)CC(=O)NC4(C)COC4)cc3)ncnc2c1 [Example 144] | 100 to 1000 | 100 to 1000 | 100 to 1000 | 100 to 1000 | – | – | – |
| CC(C)(C)CNC(=O)CC(=O)Nc1ccc(Nc2ncnc3cc(OCCN4CCOCC4)cc(F)c23)cc1 [Example 145] | 10 to 100 | 10 to 100 | 10 to 100 | ≤ 10 | 10 to 100 | ≤ 10 | 10 to 100 |
